Test results reported in patent US20090170838A1, “Bicycloheteroaryl compounds as P2X7 modulators and uses thereof” (Renovis, Inc., priority 2005, published 2009).

Molecular target: T1, P2X7 receptor (Homo sapiens, UniProt Q99572)
T1 construct: host or cells: THP-1 cells differentiated with LPS and IFN-γ
T1 sequence (Q99572 1-595): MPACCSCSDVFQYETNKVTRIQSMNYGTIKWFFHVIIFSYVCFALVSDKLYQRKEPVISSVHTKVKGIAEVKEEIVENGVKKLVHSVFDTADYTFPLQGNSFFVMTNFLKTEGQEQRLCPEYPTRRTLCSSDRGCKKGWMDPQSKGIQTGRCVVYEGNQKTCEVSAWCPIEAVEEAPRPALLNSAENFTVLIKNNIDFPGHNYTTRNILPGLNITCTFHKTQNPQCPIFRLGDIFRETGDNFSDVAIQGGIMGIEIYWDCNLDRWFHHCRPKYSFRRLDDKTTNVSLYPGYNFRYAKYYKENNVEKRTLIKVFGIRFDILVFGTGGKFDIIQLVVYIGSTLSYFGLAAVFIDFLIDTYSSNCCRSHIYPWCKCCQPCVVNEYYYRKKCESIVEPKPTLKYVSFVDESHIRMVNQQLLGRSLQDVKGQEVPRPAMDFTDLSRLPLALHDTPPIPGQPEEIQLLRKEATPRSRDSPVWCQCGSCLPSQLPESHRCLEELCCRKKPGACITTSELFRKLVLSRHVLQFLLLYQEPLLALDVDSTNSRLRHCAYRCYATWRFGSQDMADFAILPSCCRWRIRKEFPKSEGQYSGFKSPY
Assay: IL-1β release assay (BzATP-stimulated, LPS/IFN-γ differentiated THP-1 cells, ELISA)
Assay type: cell-based
Details: for inhibition at 0.3 µM: at 0.3 μM (plus symbols); for inhibition at 0.1 µM: at 0.1 μM (asterisk symbols)
Method: THP-1 cells (ATCC Cat # 285-IF-100) are plated in 96 well plates at a concentration of 200,000 cells per well and allowed to differentiate in RPMI-1640 media (ATCC Cat # 30-2001) containing 10% FBS, 100 IU/mL penicillin, 100 ug/mL streptomycin, 100 ng/mL LPS and 100 ng/mL IFN-γ for 16 hours. Following differentiation, the cells are treated for an additional 2 hours in RPMI-1640 media containing 100 IU/mL penicillin, 100 ug/mL streptomycin and fresh LPS at 100 ng/mL. The cells are then pretreated for 30 minutes with the compound of interest at the appropriate concentration in RPMI media containing 100 IU/mL penicillin, 100 ug/mL streptomycin. Following the pretreatment 2′,3′-O-(4-benzoylbenzoyl)-adenosine 5′-triphosphate (Sigma Aldrich Cat# B6396) is added to a final concentration of 250 uM and the cells incubated for an additional 45 minutes. 30 uL of cell supernatant is then collected and […] levels determined via ELISA (R&D systems Cat. # HSLB50) according to manufacturer's recommendations using the Tecan Safire plate reader. Background adjusted IL-1β levels of drug treated and non-treated cells are used to calculate the percent inhibition.

Compound	inhibition at 0.3 µM	inhibition at 0.1 µM
O=C(CC12CC3CC(CC(C3)C1)C2)Nc1cccc2c(=O)n(Cc3ccccc3)ccc12 [Compound 701, 2-adamantan-1-yl-N-(2-benzyl-1-oxo-1,2-dihydro-isoquinolin-5-yl)-acetamide]	≥ 75%	
O=C(CC12CC3CC(CC(C3)C1)C2)Nc1cccc2c(=O)n(Cc3ccc(F)cc3)ccc12 [Compound 703, 2-Adamantan-1-yl-N-[2-(4-fluoro-benzyl)-1-oxo-1,2-dihydro-isoquinolin-5-yl]-acetamide]	≥ 75%	
O=C(CC12CC3CC(CC(C3)C1)C2)Nc1cccc2c1CCN(Cc1ccc(F)cc1)C2=O [Compound 704]	≥ 75%	
O=C(CC12CC3CC(CC(C3)C1)C2)Nc1cccc2c(=O)n(Cc3ccc(F)cc3F)ccc12 [Compound 705]	≥ 75%	
O=C(CC12CC3CC(CC(C3)C1)C2)Nc1cccc2c(=O)n(Cc3ccccc3F)ccc12 [Compound 706]	≥ 75%	
O=C(CC12CC3CC(CC(C3)C1)C2)Nc1cccc2c(=O)n(Cc3ccccc3Cl)ccc12 [Compound 708]	≥ 75%	
Cc1cnc(Cn2ccc3c(NC(=O)CC45CC6CC(CC(C6)C4)C5)cccc3c2=O)cn1 [Compound 710]	≥ 75%	
CC(c1ccccc1)n1ccc2c(NC(=O)CC34CC5CC(CC(C5)C3)C4)cccc2c1=O (stereo not shown) [Compound 711]	≥ 75%	
O=C(CC12CC3CC(CC(C3)C1)C2)Nc1cccc2c(=O)n(Cc3ccco3)ccc12 [Compound 712]	≥ 75%	
O=C(CC12CC3CC(CC(C3)C1)C2)Nc1cccc2c(=O)n(Cc3ccc(C(F)(F)F)cc3)ccc12 [Compound 713]	≥ 75%	
O=C(CC12CC3CC(CC(C3)C1)C2)Nc1cccc2c(=O)n(Cc3ccccn3)ccc12 [Compound 714]	≥ 75%	
O=C(CC12CC3CC(CC(C3)C1)C2)Nc1cccc2c(=O)n(Cc3cccnc3)ccc12 [Compound 715]	≥ 75%	
O=C(CC12CC3CC(CC(C3)C1)C2)Nc1cccc2c(=O)n(Cc3ccncc3)ccc12 [Compound 716]	≥ 75%	
Cc1nn(C)c(C)c1Cn1ccc2c(NC(=O)CC34CC5CC(CC(C5)C3)C4)cccc2c1=O [Compound 718]	≥ 75%	
Cc1cc(Cn2ccc3c(NC(=O)CC45CC6CC(CC(C6)C4)C5)cccc3c2=O)nn1C [Compound 719]	25 to 50%	
C[C@@H](c1ccccc1)n1ccc2c(NC(=O)CC34CC5CC(CC(C5)C3)C4)cccc2c1=O [Compound 720]	≥ 75%	
C[C@H](c1ccccc1)n1ccc2c(NC(=O)CC34CC5CC(CC(C5)C3)C4)cccc2c1=O [Compound 721]	≥ 75%	

Compound	inhibition at 0.3 µM	inhibition at 0.1 µM
O=C(CC12CC3CC(CC(C3)C1)C2)Nc1cccc2c(=O)n(Cc3c(F)cccc3Cl)ccc12 [Compound 722]	≥ 75%	
Cc1ccccc1Cn1ccc2c(NC(=O)CC34CC5CC(CC(C5)C3)C4)cccc2c1=O [Compound 723]	≥ 75%	
O=C(CC12CC3CC(CC(C3)C1)C2)Nc1cccc2c(=O)n(CC3COCCO3)ccc12 (stereo not shown) [Compound 724]	≥ 75%	
O=C(CC12CC3CC(CC(C3)C1)C2)Nc1cccc2c1CCN(Cc1ccc(F)cc1F)C2=O [Compound 725, 2-Adamantan-1-yl-N-[2-(2,4-difluoro-benzyl)-1-oxo-1,2,3,4-tetrahydro-isoquinolin-5-yl]-acetamide]	≥ 75%	
O=C(CC12CC3CC(CC(C3)C1)C2)Nc1cccc2c1CCN(CC1CCCO1)C2=O (stereo not shown) [Compound 726]	≥ 75%	
O=C(CC12CC3CC(CC(C3)C1)C2)Nc1cccc2c1CCN(Cc1cccnc1)C2=O [Compound 728]	≥ 75%	
Cc1nn(C)c(C)c1CN1CCc2c(NC(=O)CC34CC5CC(CC(C5)C3)C4)cccc2C1=O [Compound 729]	≥ 75%	
O=C(CC12CC3CC(CC(C3)C1)C2)Nc1cccc2c1CCN(Cc1ccco1)C2=O [Compound 730]	≥ 75%	
CC(c1ccccc1)N1CCc2c(NC(=O)CC34CC5CC(CC(C5)C3)C4)cccc2C1=O (stereo not shown) [Compound 731]	≥ 75%	
Cc1cnc(CN2CCc3c(NC(=O)CC45CC6CC(CC(C6)C4)C5)cccc3C2=O)cn1 [Compound 732]	≥ 75%	
O=C(CC12CC3CC(CC(C3)C1)C2)Nc1cccc2c(=O)n(Cc3c(F)cccc3F)ccc12 [Compound 733]	≥ 75%	
O=C(CC12CC3CC(CC(C3)C1)C2)Nc1cccc2c(=O)n(CC3COc4ccccc4O3)ccc12 (stereo not shown) [Compound 734]	≥ 75%	
O=C(CC12CC3CC(CC(C3)C1)C2)Nc1cccc2c(=O)n(Cc3ccc(F)c(F)c3)ccc12 [Compound 735]	≥ 75%	
CN(C)CCn1ccc2c(NC(=O)CC34CC5CC(CC(C5)C3)C4)cccc2c1=O [Compound 736]	≥ 75%	
Cc1cc(Cn2ccc3c(NC(=O)CC45CC6CC(CC(C6)C4)C5)cccc3c2=O)no1 [Compound 737]	≥ 75%	
Cc1nn(-c2ccccc2)nc1Cn1ccc2c(NC(=O)CC34CC5CC(CC(C5)C3)C4)cccc2c1=O [Compound 738]	≥ 75%	

More lines, now with the values ahead:

inhibition at 0.3 µM	inhibition at 0.1 µM	Compound
≥ 75%		O=C(CC12CC3CC(CC(C3)C1)C2)Nc1cccc2c(=O)n(C[C@@H]3CCCO3)ccc12 [Compound 739]
≥ 75%		CC12CC3CC(C)(C1)CC(CC(=O)Nc1cccc4c(=O)n(CCc5c[nH]cn5)ccc14)(C3)C2 [Compound 741]
≥ 75%		CC(c1ccccc1)n1ccc2c(NC(=O)CC34CC5CC(C)(CC(C)(C5)C3)C4)cccc2c1=O (stereo not shown) [Compound 742]
≥ 75%		CC12CC3CC(C)(C1)CC(CC(=O)Nc1cccc4c(=O)n(Cc5ccccc5F)ccc14)(C3)C2 [Compound 743]
≥ 75%		CC12CC3CC(C)(C1)CC(CC(=O)Nc1cccc4c(=O)n(Cc5ccccn5)ccc14)(C3)C2 [Compound 744]
≥ 75%		Cc1cc(Cn2ccc3c(NC(=O)CC45CC6CC(C)(CC(C)(C6)C4)C5)cccc3c2=O)nn1C [Compound 745]
≥ 75%		CN1CCC(Cn2ccc3c(NC(=O)CC45CC6CC(C)(CC(C)(C6)C4)C5)cccc3c2=O)CC1 [Compound 746]
≥ 75%		CN(C)c1ccc(Cn2ccc3c(NC(=O)CC45CC6CC(CC(C6)C4)C5)cccc3c2=O)cc1 [Compound 747]
≥ 75%		CC(C)(C)OC(=O)N1CCC(Cn2ccc3c(NC(=O)CC45CC6CC(CC(C6)C4)C5)cccc3c2=O)CC1 [Compound 748]
≥ 75%		O=C(CC12CC3CC(CC(C3)C1)C2)Nc1cccc2c(=O)n(CC3CCNCC3)ccc12 [Compound 749]
≥ 75%		CCN1CCCC1Cn1ccc2c(NC(=O)CC34CC5CC(CC(C5)C3)C4)cccc2c1=O (stereo not shown) [Compound 750]
	50 to 75%	CC12CC3CC(C)(C1)CC(CC(=O)Nc1cccc4c(=O)n(CCc5ccccn5)ccc14)(C3)C2 [Compound 752]
	≥ 75%	CC12CC3CC(C)(C1)CC(CC(=O)Nc1cccc4c(=O)n(Cc5ccc(C(F)(F)F)cc5)ccc14)(C3)C2 [Compound 753]
	≥ 75%	CC12CC3CC(C)(C1)CC(CC(=O)Nc1cccc4c(=O)n(Cc5ccc(F)cc5)ccc14)(C3)C2 [Compound 754]
	≥ 75%	CC12CC3CC(C)(C1)CC(CC(=O)Nc1cccc4c(=O)n(Cc5ccncc5)ccc14)(C3)C2 [Compound 755]
	50 to 75%	CC12CC3CC(C)(C1)CC(CC(=O)Nc1cccc4c(=O)n(Cc5cccnc5)ccc14)(C3)C2 [Compound 756]
